# Experimental data published in patent US20260356823A1, “SODIUM CHANNEL REGULATOR AND USE THEREOF” (SHANGHAI HUILUN PHARMACEUTICAL CO., LTD., priority 2022, published 2026).
# Target: T1, human Nav1.8 (Homo sapiens, UniProt Q9Y5Y9)
# T1 construct: expressed in transfected cells
# Assay: In vitro inhibition of Nav1.8, manual patch clamp on HEK293 cells stably expressing human Nav1.8
# Assay type: cell-based
# Conditions: 100 nM, human Nav1.8, manual patch clamp
# Experimental: Bioactivity Test 1: In Vitro Inhibition of Nav1.8 by the Compound
# By using a manual patch clamp on HEK293 cells stably expressing human Nav1.8, currents on Nav1.8 before and after administration of the compound were compared after the currents on Nav1.8 were stable, to obtain the effect of the compound on the Nav1.8 channel.
# The to-be-tested compound was dissolved in DMSO to prepare a 9 mM stock solution, which was taken and dissolved in extracellular fluid at a desired concentration on the day of testing. The extracellular fluid included the following ingredients (mM): NaCl, 137; KCl, 4; CaCl2, 1.8; MgCl2, 1; HEPES, 10; glucose, 10; and pH 7.4 (NaOH titration). All reagents were purchased from Sigma (St. Louis, MO).
# The cells were clamped at −80 mV and depolarized with a sustained 10 ms square wave to 10 mV to obtain a current on Nav1.8. This process was repeated every 5 seconds. A maximum current caused by the square wave was detected. After the current is stable, the to-be-tested compound (dissolved in the extracellular fluid at the desired concentration) was perfused. After the current is stable, the strength of blocking Nav1.8 by the compound was calculated based on the currents before and after perfusion of the compound. pCLAMP 10 (Molecular Devices, Union City, CA) was used. That the current is stable means that the current changes over time within a limited range.
# T1 sequence (Q9Y5Y9 whole entry): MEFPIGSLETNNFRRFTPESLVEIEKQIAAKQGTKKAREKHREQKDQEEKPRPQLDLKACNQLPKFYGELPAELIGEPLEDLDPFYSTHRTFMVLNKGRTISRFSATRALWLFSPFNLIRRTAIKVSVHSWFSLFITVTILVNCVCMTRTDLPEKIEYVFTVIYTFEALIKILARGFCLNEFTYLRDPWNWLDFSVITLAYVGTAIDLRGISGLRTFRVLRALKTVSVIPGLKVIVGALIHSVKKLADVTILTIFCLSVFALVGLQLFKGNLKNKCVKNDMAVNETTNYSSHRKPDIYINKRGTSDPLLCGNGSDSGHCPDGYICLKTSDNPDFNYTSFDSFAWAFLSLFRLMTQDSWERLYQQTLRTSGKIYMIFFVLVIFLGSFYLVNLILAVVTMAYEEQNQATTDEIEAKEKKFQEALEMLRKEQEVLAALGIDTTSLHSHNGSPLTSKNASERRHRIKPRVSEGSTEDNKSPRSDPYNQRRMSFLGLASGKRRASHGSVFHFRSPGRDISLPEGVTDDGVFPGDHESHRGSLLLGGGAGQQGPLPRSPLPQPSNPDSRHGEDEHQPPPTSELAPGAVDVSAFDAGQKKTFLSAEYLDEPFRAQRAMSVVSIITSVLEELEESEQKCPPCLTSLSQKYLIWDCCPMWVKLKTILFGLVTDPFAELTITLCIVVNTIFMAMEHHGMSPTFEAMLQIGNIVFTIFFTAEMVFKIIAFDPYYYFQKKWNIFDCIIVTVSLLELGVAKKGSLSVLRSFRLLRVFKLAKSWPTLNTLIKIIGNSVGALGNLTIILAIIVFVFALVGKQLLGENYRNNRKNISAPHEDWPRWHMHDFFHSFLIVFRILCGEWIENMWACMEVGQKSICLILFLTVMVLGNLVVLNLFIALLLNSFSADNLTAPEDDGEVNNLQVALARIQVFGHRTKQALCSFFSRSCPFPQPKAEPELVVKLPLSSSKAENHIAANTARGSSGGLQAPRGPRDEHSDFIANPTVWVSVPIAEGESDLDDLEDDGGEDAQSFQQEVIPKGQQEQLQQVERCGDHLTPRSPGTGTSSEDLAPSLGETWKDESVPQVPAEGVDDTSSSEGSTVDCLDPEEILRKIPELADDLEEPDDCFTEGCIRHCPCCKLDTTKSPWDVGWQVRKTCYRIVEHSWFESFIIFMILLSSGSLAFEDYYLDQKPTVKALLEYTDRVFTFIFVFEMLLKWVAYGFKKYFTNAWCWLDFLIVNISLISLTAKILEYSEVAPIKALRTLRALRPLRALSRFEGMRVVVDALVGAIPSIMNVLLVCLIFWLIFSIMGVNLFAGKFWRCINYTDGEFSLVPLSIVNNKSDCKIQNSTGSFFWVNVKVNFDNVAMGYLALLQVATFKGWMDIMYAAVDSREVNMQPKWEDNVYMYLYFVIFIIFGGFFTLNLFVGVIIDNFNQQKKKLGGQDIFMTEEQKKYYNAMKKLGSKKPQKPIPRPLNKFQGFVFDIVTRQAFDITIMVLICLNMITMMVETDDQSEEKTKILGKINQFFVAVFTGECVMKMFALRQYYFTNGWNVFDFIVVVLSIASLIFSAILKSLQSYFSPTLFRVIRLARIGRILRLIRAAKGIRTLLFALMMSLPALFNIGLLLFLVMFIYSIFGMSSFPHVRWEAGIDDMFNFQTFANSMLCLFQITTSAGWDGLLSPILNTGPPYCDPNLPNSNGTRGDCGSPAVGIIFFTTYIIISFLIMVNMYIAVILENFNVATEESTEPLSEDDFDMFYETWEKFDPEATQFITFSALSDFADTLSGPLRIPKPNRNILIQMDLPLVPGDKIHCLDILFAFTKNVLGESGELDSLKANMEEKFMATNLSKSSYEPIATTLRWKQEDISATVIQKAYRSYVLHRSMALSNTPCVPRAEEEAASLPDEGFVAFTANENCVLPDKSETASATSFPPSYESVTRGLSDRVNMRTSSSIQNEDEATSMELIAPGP
row,Molecule,Inhibitory activity (inhibition/% at 100 nM concentration)
1,"rel-(2R,3S,4S,5R)-3-(3,4-difluoro-2-methoxyphenyl)-4,5-dimethyl-N-(4-oxo-3H-quinazolin-6-yl)-5-(trifluoromethyl)tetrahydrofuran-2-carboxamide [Example 4]",A (A ≥ 50)

# Same assay, conditions: HEK293, 100 nM, human Nav1.8, manual patch clamp, read-out: Inhibitory activity (inhibition/% at 100 nM concentration)
row,Molecule,inhibition at 0.1 µM [%]
1,"COc1c([C@H]2[C@H](C(=O)Nc3ccc4o[nH]c(=O)c4c3)O[C@@](C)(C(F)(F)F)[C@H]2C)ccc(F)c1F (relative stereo) [Example 5, rel-(2R,3S,4S,5R)-3-(3,4-difluoro-2-methoxyphenyl)-4,5-dimethyl-N-(3-oxo-2H-benzo[d]isoxazol-5-yl)-5-(trifluoromethyl)tetrahydrofuran-2-carboxamide]",≥ 50
2,"COc1c([C@H]2[C@H](C(=O)Nc3ccnc(N4CCN(C)CC4=O)c3)O[C@]3(C(F)(F)F)CC[C@]23C)ccc(F)c1F (relative stereo) [Example 100, rel-(1R,3R,4S,5R)-4-(3,4-difluoro-2-methoxyphenyl)-5-methyl-N-(2-(4-methyl-2-oxopiperazin-1-yl)pyridin-4-yl)-1-(trifluoromethyl)-2-oxabicyclo[3.2.0]heptane-3-carboxamide]",≥ 50
3,"COc1c([C@H]2[C@H](C(=O)Nc3ccc(=O)[nH]n3)O[C@@](C)(C(F)(F)F)[C@H]2C)ccc(F)c1F (relative stereo) [Example 27, rel-(2R,3S,4S,5R)-3-(3,4-difluoro-2-methoxyphenyl)-4,5-dimethyl-N-(6-oxo-1H-1,2-dioxine-3-yl)-5-(trifluoromethyl)tetrahydrofuran-2-carboxamide]",≥ 50
4,"COc1c([C@H]2[C@H](C(=O)Nc3ccc(C#N)c(C(N)=O)c3)O[C@@](C)(C(F)(F)F)[C@H]2C)ccc(F)c1F (relative stereo) [Example 25, rel-(2R,3S,4S,5R)—N-(3-carbamoyl-4-cyanophenyl)-3-(3,4-difluoro-2-methoxyphenyl)-4,5-dimethyl-5-(trifluoromethyl)tetrahydrofuran-2-carboxamide]",≥ 50
5,"COc1c([C@H]2[C@H](C(=O)Nc3ccc(F)c(S(=O)(=O)Nc4cscn4)c3)O[C@]3(C(F)(F)F)CC[C@]23C)ccc(F)c1F (relative stereo) [Example 92, rel-(1R,3R,4S,5R)-4-(3,4-difluoro-2-methoxyphenyl)-N-(4-fluoro-3-(N-(thiazol-4-yl)aminosulfonyl)phenyl)-5-methyl-1-trifluoromethyl-2-oxabicyclo[3.2.0]heptane-3-carboxamide]",≥ 50
6,"COc1c([C@H]2[C@H](C(=O)Nc3ccnc(S(C)(=O)=O)c3)O[C@]3(C(F)(F)F)CC[C@]23C)ccc(F)c1F (relative stereo) [Example 101, rel-(1R,3R,4S,5R)-4-(3,4-difluoro-2-methoxyphenyl)-5-methyl-N-(2-methylsulfonyl)pyridin-4-yl)-1-trifluoromethyl-2-oxabicyclo[3.2.0]heptane-3-carboxamide]",≥ 50
7,"COc1c([C@H]2[C@H](C(=O)Nc3ccc4c(c3)CNC4=O)O[C@@](C)(C(F)(F)F)[C@H]2C)ccc(F)c1F (relative stereo) [Example 8, rel-(2R,3S,4S,5R)-3-(3,4-difluoro-2-methoxyphenyl)-4,5-dimethyl-N-(1-oxo-2,3-dihydro-1H-isoindol-5-yl)-5-(trifluoromethyl)tetrahydrofuran-2-carboxamide]",≥ 50
8,"COc1c([C@H]2[C@H](C(=O)Nc3cc[n+](C)c(C(N)=O)c3)O[C@@](C)(C(F)(F)F)[C@H]2C)ccc(F)c1F (relative stereo) [Example 16, rel-2-carbamoyl-4-((2R,3S,4S,5R)-3-(3,4-difluoro-2-methoxyphenyl)-4,5-dimethyl-5-(trifluoromethyl)tetrahydrofuran-2-carboxamido)-1-methylpyridin-1-onium iodide]",≥ 50
9,COc1c([C@H]2[C@H](C(=O)Nc3ccnc4c(N)nccc34)O[C@@](C)(C(F)(F)F)[C@H]2C)ccc(F)c1F [Example 7],≥ 50
10,"COc1c([C@H]2[C@H](C(=O)Nc3ccc4c(c3)S(=O)(=O)NC4)O[C@@](C)(C(F)(F)F)[C@H]2C)ccc(F)c1F (relative stereo) [Example 9, rel-(2R,3S,4S,5R)-3-(3,4-difluoro-2-methoxyphenyl)-N-(1,1-dioxo-2,3-dihydrobenzo[d]isothiazol-6-yl)-4,5-dimethyl-5-(trifluoromethyl)tetrahydrofuran-2-carboxamide]",≥ 50
11,"CCNS(=O)(=O)c1cc(NC(=O)[C@@H]2O[C@@](C)(C(F)(F)F)[C@@H](C)[C@H]2c2ccc(F)c(F)c2OC)ccn1 (relative stereo) [Example 83, rel-(2R,3S,4S,5R)-3-(3,4-difluoro-2-methoxyphenyl)-N-(2-(N-ethylsulfamoyl)pyridin-4-yl)-4,5-dimethyl-5-(trifluoromethyl)tetrahydrofuran-2-carboxamide]",≥ 50
12,COc1c([C@H]2C(C(=O)Nc3ccc(S(N)(=O)=O)nc3)O[C@]3(C(F)(F)F)CC[C@]23C)ccc(F)c1F (stereo partly shown) [Example 99],≥ 50
13,"COc1c(C2C(C(=O)Nc3cc(F)c(C(N)=O)c(C(N)=O)c3)OC(C)(C(F)(F)F)C2C)ccc(F)c1F [Example 80, rel-5-((2R,3S,4S,5R)-3-(3,4-difluoro-2-methoxyphenyl)-4,5-dimethyl-5-(trifluoromethyl)tetrahydrofuran-2-carboxamide)-3-fluorophthalic amine]",≥ 50
14,"COc1c([C@H]2[C@H](C(=O)Nc3ccc4c(c3)C(=O)OOC4N)O[C@@](C)(C(F)(F)F)[C@H]2C)ccc(F)c1F (relative stereo) [Example 13, rel-(2R,3S,4S,5R)—N-(1-amino-4-oxo-3H-benzo[2,1-d][1,2]dioxine-6-yl)-3-(3,4-difluoro-2-methoxyphenyl)-4,5-dimethyl-5-(trifluoromethyl)tetrahydrofuran-2-carboxamide]",≥ 50
15,"CNS(=O)(=O)c1cc(NC(=O)[C@@H]2O[C@]3(C(F)(F)F)CC[C@]3(C)[C@H]2c2ccc(F)c(F)c2OC)ccn1 (relative stereo) [Example 88, rel-(1R,3R,4S,5R)-4-(3,4-difluoro-2-methoxyphenyl)-5-methyl-N-(2-(N-methylsulfamoyl)pyridin-4-yl)-1-(trifluoromethyl)-2-oxabicyclo[3.2.0]heptane-3-carboxamide]",≥ 50
